Common to all, as to assay type: biochemical
Assay [1] deals with T1, 11β-HSD1 (Homo sapiens (Human), UniProt P28845). The assay can be described thus: Biological Test Example 4: HTRF assay of 11β-HSD1 in human liver microsomes. The conditions noted are these: HTRF cortisol detection. How it is done: In vitro inhibition of 11β-HSD1 by test compounds is determined with HTRF (Homogeneous Time-Resolved Fluorescence) technology (cisbio international, France) detecting cortisol generated from […] by human liver microsomes. […] Cortisol generated in the reaction is then detected with a competitive immunoassay, involving two HTRF conjugates: cortisol linked to XL665 and anti-cortisol antibody labeled with Europium cryptate. The incubation period for detection reaction is typically 2 hours. […] The ratio of the two emission signals is then calculated (Em665*10000/Em615). […] Each assay also contains a calibration curve with cortisol to transform the fluorescent data into cortisol concentrations. Percent inhibition (% CTL) of each compound is determined relative to the carbenoxolone signal and IC50 curves are generated.
For orientation: TR-FRET usually uses a lanthanide donor and a delayed reading to cut background.
Target sequence in this assay (P28845 whole entry): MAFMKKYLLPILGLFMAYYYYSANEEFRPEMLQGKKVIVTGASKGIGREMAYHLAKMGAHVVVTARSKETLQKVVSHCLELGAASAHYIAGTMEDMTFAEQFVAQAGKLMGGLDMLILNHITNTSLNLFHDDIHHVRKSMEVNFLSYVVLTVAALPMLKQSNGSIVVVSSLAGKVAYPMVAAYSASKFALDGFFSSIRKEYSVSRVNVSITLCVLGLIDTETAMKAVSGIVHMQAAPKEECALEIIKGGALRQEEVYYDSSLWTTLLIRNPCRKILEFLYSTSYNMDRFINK

Assay [2] concerns the target T1, 11β-HSD1. The assay can be described thus: Biological Test Example 3: inhibition of purified recombinant 11β-HSD1 (SPA). The conditions noted are these: purified recombinant 11β-HSD1 expressed in E. coli, read-out: IC50 Range. The method, then: The inhibition of purified 11β-HSD1 by compounds of Formula I is measured using a Scintillation Proximity Assay. All reactions are carried out at room temperature in 96 well flexible Microbeta reaction plates. First, 1 μL of a 0.1 mM solution of a compound of Formula I is mixed in DMSO diluted in half-log increments (8 points) starting at 1 μM final concentration. To this dot is added 50 μL of substrate solution (50 mM HEPES, pH 7.4, 100 mM KCl, 5 mM NaCl, 2 mM MgCl2 containing 20 μM ^3H cortisone, 1 mM NADPH). […] The reaction is then incubated for 90 minutes, and stopped by adding 50 μl of SPA bead mix (18-β-glycyrrhetinic acid, 10 μM final, 5 mg/ml protein A coated YSi SPA beads, and 1 ug/ml α-cortisol antibody (East Coast Biologics)). The plate is shaken for 120 minutes, and the radioactivity corresponding to ^3H cortisol is measured on a Wallac Microbeta.
Target sequence in this assay (P28845 whole entry, species assumed): as the sequence (P28845 whole entry) above

For assay [3], the target named is T1, 11β-HSD1. The experiment in a line: Biological Test Example 1: inhibition of a microsomal preparation of 11β-HSD1 (SPA). The following applies: for inhibition at 0.1 µM: read-out: Average % inhibition at 100 nM, Biological Test Example 1; for inhibition at 0.1 µM / Average % inhibition at 100 nM: 100 nM compound; for inhibition at 0.111 µM: read-out: Average % inhibition at 111 nM.
Target sequence in this assay (P28845 whole entry): as above

[4] abbreviates: Biological Test Example 1, microsomes from CHO cells overexpressing human 11β-HSD1, read-out: IC50 Range.
The mark [5] stands for this setting: Biological Test Example 1, read-out: IC50.

Broadly, the pIC50 is the negative decadic logarithm of the IC50, by convention in mol/L. Broadly, the inhibition is how much of the control response was suppressed.

Structures are written as SMILES. pIC50: −log10 of the molar value. “And” between values parts separate entries of the source, which are not always exact repeats. Equal entries are not always repeated. Where two headings read alike, the source gives them in different places.

On to `N#Cc1ccnc(O[C@@H]2CCN(C(=O)OC3C4CC5CC3CC(O)(C5)C4)C2)c1` (stereo partly drawn) [Example 79, (R)-3-(4-Cyano-hyridin-2-yloxy)-pyrrolidine-1-carboxylic acid 5-hydroxy-adamantan-2-yl ester], for which the pIC50 in assay [1] is less than 5.00.

With `O=C(OC1C2CC3CC(C2)CC1C3)N1CCCC1c1ccccc1` (stereo not shown) [EXAMPLE 7, 2-adamantyl 2-phenylpyrrolidine-1-carboxylate], the pIC50 in assay [2] is greater than 7.00.

In the case of `N#Cc1ccn([C@@H]2CCN(C(=O)OC3C4CC5CC3CC(O)(C5)C4)C2)c(=O)c1` (single isomer, unassigned; isomer 2) [Example 78 Isomer 2], in assay [1], the negative logarithm of the IC50 (pIC50) was 5.93.

Consider `Cc1ccccc1C1(CC(=O)O)CCN(C(=O)OC2C3CC4CC(C3)CC2C4)CC1` (stereo not shown) [EXAMPLE 12, 2-(1-(2-adamantyloxycarbonyl)-4-o-tolylpiperidin-4-yl)acetic acid], for which the negative-log IC50 (pIC50) in assay [2] is 6.00 to 7.00.

`O=C(OC1C2CC3CC(C2)CC1C3)N1CCC(c2ccccc2)C1` (stereo not shown) [EXAMPLE 8, 2-adamantyl 3-phenylpyrrolidine-1-carboxylate]: the negative logarithm of the IC50 (pIC50) in assay [2] was greater than 7.00.

Regarding `O=C(OC1C2CC3CC(C2)CC1C3)N1CCCC1Cc1ccccc1` (stereo not shown) [EXAMPLE 9, 2-adamantyl 2-benzylpyrrolidine-1-carboxylate], the pIC50 in assay [2] was greater than 7.00.

Take `CCOC(=O)C1(Cc2ccccc2)CCCN(C(=O)OC2C3CC4CC(C3)CC2C4)C1` (stereo not shown) [EXAMPLE 13, 1-(2-adamantyl) 3-ethyl 3-benzylpiperidine-1,3-dicarboxylate]: in assay [2], the negative logarithm of the IC50 (pIC50) is greater than 7.00.

Turning to `O=C(OC1C2CC3CC(C2)CC1C3)N1CCC(N2C(=O)Cc3ccccc32)CC1` (stereo not shown) [EXAMPLE 27, 2-adamantyl 4-(2-oxoindolin-1-yl)piperidine-1-carboxylate], the pIC50 in assay [2] is greater than 7.00.

With `O=C(OC1C2CC3CC(C2)CC1C3)N1CCC(Cc2ccccc2)C1` (stereo not shown) [EXAMPLE 10, 2-adamantyl 3-benzylpyrrolidine-1-carboxylate], in assay [2], the pIC50 was greater than 7.00.

As for `NC(=O)[C@]12CC3CC(C1)[C@@H](OC(=O)N1CC[C@H](Oc4ccc(C(F)(F)F)cn4)C1)C(C3)C2` [EXAMPLE 6, (S)-(trans-(1-carbamoyl-4-adamantyl)) 3-(5-(trifluoromethyl)pyridin-2-yloxy)pyrrolidine-1-carboxylate], the figures for the pIC50 in assay [3] (setting [4]) and in assay [3] (setting [5]) were greater than 7.00 and 9.27, respectively. Besides, the inhibition at 0.1 µM in assay [3] worked out at 96.9%.

The compound `O=C(OC1C2CC3CC(C2)CC1C3)N1CCC(CO)(c2ccccc2)CC1` (stereo not shown) [EXAMPLE 30, 2-adamantyl 4-(hydroxymethyl)-4-phenylpiperidine-1-carboxylate] returned an inhibition at 0.063 µM in assay [3] (Biological Test Example 1, Dose = 63 nM) of 80.1%. Further, the pIC50 in assay [3] (setting [4]) is greater than 7.00; in assay [3] (setting [5]), 7.88 and 8.35. The inhibition at 0.1 µM in assay [3] was found to be 87.4%.

Regarding `Cn1c(=O)n([C@@H]2CCN(C(=O)O[C@H]3C4CC5CC3C[C@](C(N)=O)(C5)C4)C2)c2ccccc21` [EXAMPLE 62, (R)-trans-1-carbamoyl-4-adamantyl 3-(3-methyl-2-oxo-2,3-dihydro-1H-benzo[d]imidazol-1-yl)pyrrolidine-1-carboxylate], the pIC50 in assay [3] (setting [4]) was greater than 7.00; in assay [3] (setting [5]) it was 8.51. Also, the inhibition at 0.1 µM in assay [3] is 92.7%.

In the case of `Cc1ccc(C2CCN(C(=O)OC3C4CC5CC3CC(C(N)=O)(C5)C4)C2)nn1` (single isomer, unassigned) [EXAMPLE 37 Isomer 1, trans-1-carbamoyl-4-adamantyl 3-(6-methylpyridazin-3-yl)pyrrolidine-1-carboxylate], the “Average % inhibition at 100 nM” value in assay [3] (Biological Test Example 1) is on record as 76.6%.

With `Cc1cc(C2CCN(C(=O)OC3C4CC5CC3CC(C(N)=O)(C5)C4)C2)nn1C` (single isomer, unassigned) [EXAMPLE 40 Isomer 2, 1-carbamoyl-4-adamantyl 3-(1,5-dimethyl-1H-pyrazol-3-yl)pyrrolidine-1-carboxylate], the “Average % inhibition at 100 nM” value in assay [3] (Biological Test Example 1) was 5.2%. Moreover, the pIC50 in assay [3] (setting [4]) and in assay [3] (setting [5]) was less than 7.00 each time.

With `Cc1cc(C)nc(C2CCN(C(=O)OC3C4CC5CC3CC(C(N)=O)(C5)C4)C2)n1` (single isomer, unassigned) [EXAMPLE 43 Isomer 2, cis-1-carbamoyl-4-adamantyl 3-(4,6-dimethylpyrimidin-2-yl)pyrrolidine-1-carboxylate], the “Average % inhibition at 100 nM” value in assay [3] (Biological Test Example 1) is recorded as −1.8%. In addition, the pIC50 in assay [3] (setting [4]) and in assay [3] (setting [5]) was less than 7.00 throughout.

Take `COc1cnc(C2CCN(C(=O)OC3C4CC5CC3CC(C(N)=O)(C5)C4)C2)nc1` (single isomer, unassigned) [EXAMPLE 44 Isomer 1, 1-carbamoyl-4-adamantyl 3-(5-methoxypyrimidin-2-yl)pyrrolidine-1-carboxylate]: the “Average % inhibition at 100 nM” value in assay [3] (Biological Test Example 1) is reported as 95.2%.

Turning to `COC(=O)C1(c2ccccc2)CCN(C(=O)OC2C3CC4CC(C3)CC2C4)CC1` (stereo not shown) [EXAMPLE 11, 1-(2-adamantyl) 4-methyl 4-phenylpiperidine-1,4-dicarboxylate], the pIC50 was greater than 7.00 in assay [3] (IC50 Range) and 8.18 in assay [3] (read-out: IC50). Further, the inhibition at 0.111 µM in assay [3] is 86.3%.

Take `O=C(OC1C2CC3CC(C2)CC1C3)N1CCC(c2ncc(Cl)cn2)C1` (stereo not shown) [EXAMPLE 34, 2-adamantyl 3-(5-chloropyrimidin-2-yl)pyrrolidine-1-carboxylate]: the values for the pIC50 in assay [3] (setting [4]) and in assay [3] (setting [5]) were greater than 7.00 and 9.28, respectively. Moreover, in assay [3], the inhibition at 0.1 µM was 96.8%.

On to `Cc1ccc(C2CCN(C(=O)OC3C4CC5CC3CC(C(N)=O)(C5)C4)C2)nc1` (single isomer, unassigned) [EXAMPLE 35 Isomer 1, trans-1-carbamoyl-4-adamantyl 3-(5-methylpyridin-2-yl)pyrrolidine-1-carboxylate], for which the “Average % inhibition at 100 nM” value in assay [3] (Biological Test Example 1) is given as 91.6%. Moreover, the negative logarithm of the IC50 (pIC50) is greater than 7.00 in assay [3] (setting [4]) and 8.79 in assay [3] (setting [5]).

Take `Cc1noc(C2CCN(C(=O)O[C@H]3C4CC5CC3C[C@](C(N)=O)(C5)C4)C2)n1` (stereo partly drawn) [EXAMPLE 23, trans-1-carbamoyl-4-adamantyl 3-(3-methyl-1,2,4-oxadiazol-5-yl)pyrrolidine-1-carboxylate]: the negative-log IC50 (pIC50) in assay [3] (setting [4]) was greater than 7.00; in assay [3] (setting [5]) it was 7.75. The inhibition at 0.1 µM in assay [3] came to 79.3%.

Regarding `COc1cnc(C2CCN(C(=O)OC3C4CC5CC3CC(C(N)=O)(C5)C4)C2)nc1` (single isomer, unassigned) [EXAMPLE 44 Isomer 2, 1-carbamoyl-4-adamantyl 3-(5-methoxypyrimidin-2-yl)pyrrolidine-1-carboxylate], the “Average % inhibition at 100 nM” value in assay [3] (Biological Test Example 1) was found to be 2.4%.

With `Cc1cc(C2CCN(C(=O)OC3C4CC5CC3CC(C(N)=O)(C5)C4)C2)nn1C` (single isomer, unassigned) [EXAMPLE 40 Isomer 1, 1-carbamoyl-4-adamantyl 3-(1,5-dimethyl-1H-pyrazol-3-yl)pyrrolidine-1-carboxylate], the “Average % inhibition at 100 nM” value in assay [3] (Biological Test Example 1) turned out to be 90.8%. Besides, the pIC50 in assay [3] (setting [4]) is greater than 7.00; in assay [3] (setting [5]), 8.16.

Take `Cn1cc(-c2cnc(C3CCN(C(=O)OC4C5CC6CC4CC(C(N)=O)(C6)C5)C3)nc2)ccc1=O` (single isomer, unassigned) [EXAMPLE 58 Isomer 1, trans-1-carbamoyl-4-adamantyl 3-(5-(1-methyl-6-oxo-1,6-dihydropyridin-3-yl)pyrimidin-2-yl)pyrrolidine-1-carboxylate]: in assay [3] (Biological Test Example 1), the “Average % inhibition at 100 nM” value came out at 69.4%. The pIC50 is greater than 7.00 in assay [3] (setting [4]) and 7.48 in assay [3] (setting [5]).

With `O=C(O)COCC1(c2ccccc2)CCN(C(=O)OC2C3CC4CC(C3)CC2C4)CC1` (stereo not shown) [EXAMPLE 16, 2-((1-(2-adamantyloxycarbonyl)-4-phenylpiperidin-4-yl)methoxy)acetic acid], in assay [3] (Biological Test Example 1, 111 nM compound), the inhibition at 0.111 µM came out at 72.3%. Moreover, the pIC50 in assay [3] (setting [4]) is greater than 7.00; in assay [3] (setting [5]), 7.36.

As to `NC(=O)[C@]12CC3CC(C1)[C@@H](OC(=O)N1CC[C@H](n4c(=O)n(CCO)c5cc(F)ccc54)C1)C(C3)C2` [EXAMPLE 73, (S)-trans-1-carbamoyl-4-adamantyl 3-(5-fluoro-3-(2-hydroxyethyl)-2-oxo-2,3-dihydro-1H-benzo[d]imidazol-1-yl)pyrrolidine-1-carboxylate], the pIC50 in assay [3] (setting [4]) is greater than 7.00; in assay [3] (setting [5]) it was 8.34. In assay [3], the inhibition at 0.1 µM was found to be 93%.

`Cc1ccnc(C2CCN(C(=O)OC3C4CC5CC3CC(C(N)=O)(C5)C4)C2)n1` (single isomer, unassigned) [EXAMPLE 38 Isomer 1, 1-carbamoyl-4-adamantyl 3-(4-methylpyrimidin-2-yl)pyrrolidine-1-carboxylate]: the “Average % inhibition at 100 nM” value in assay [3] (Biological Test Example 1) is listed as 93.1%. The pIC50 in assay [3] (setting [4]) is greater than 7.00; in assay [3] (setting [5]), 8.48.
